Laboratory results as given in patent publication US20250000989A1, “PYRROLO BENZODIAZEPINE DERIVATIVE, AND CONJUGATE, PREPARATION METHOD AND USE THEREOF” (priority 2021, published 2025).

Columns and labels:
Assay in all cases: Inhibition of in vitro proliferation of tumor cells by PBD compounds (CTG)
Assay type in all cases: cell-based
[1] = system: MKN45 (human gastric cancer cells); conditions: MKN-45, 144 h, 6 days of culture
Experimental: (§1) The objective of this assay is to measure the activity of the compounds of the present disclosure in inhibiting the proliferation of different tumor cell lines: SK-BR-3 tumor cells (human breast cancer cells, ATCC, Cat. No. HTB-30), NCI-H23 (human non-small cell lung cancer cells, Nanjing Cobioer, Cat. No. CBP60132), and MKN45 (human gastric cancer cells, Nanjing Cobioer, Cat. No. CBP60488). The cells were treated in vitro with different concentrations of the compounds. After 6 days of culture, the proliferation of the cells was measured using CTG (CellTiter-Glo® Luminescent Cell Viability Assay, Promega, Cat. No. G7573) reagent, and the in vitro activity of the compounds was evaluated based on their IC50 values.
(§2) • 1. Cell culture: SK-BR-3, NCI-H23, and MKN45 cells were separately cultured in McCoy's 5A medium (ThermoFisher, Cat. No. 16600108) and RPMI 1640 medium (ThermoFisher, Cat. No. 11875119) containing 10% FBS (Gibco, 10099-141). • 2. Cell plating: After being digested with trypsin (0.25% Trypsin-EDTA (1×), Life Technologies, Cat. No. 25200-072), the SK-BR-3, NCI-H23, and MKN45 were resuspended in their respective media and counted. The density was adjusted to 1.48×10^4 cells/mL, and the cells were plated onto 96-well plates (corning, Cat. No. 3903) at 135 μL/well, i.e., 2000 cells/well, and cultured at 37° C. for 24 h. • 3. Drug formulation: PBD drugs were formulated in round-bottom 96-well plates. Plate 1: In the first column, the concentration was 0.05 mM; in the second column through the fourth column, a 3-fold serial dilution was performed in DMSO; in the fifth column through the sixth column, a 5-fold serial dilution was performed in DMSO; in the seventh column through the ninth column, a 10-fold serial dilution was performed in DMSO; and the tenth column contained DMSO. Plate 2: Corresponding media were added to the first column through the tenth column at 196 μL/well; 4 μL of solution was transferred from each well of the first column through the tenth column of plate 1 to plate 2 and well mixed with the medium; 15 μL of the mixture was added to the cells plated the day before, and the cells were cultured at 37° C. for another 6 days. • 4. CTG assay: The cell culture plates were taken out and equilibrated to room temperature. CTG was added at 75 μL/well, and the plates were incubated at room temperature in the dark for 10 min. Then luminescence values were measured on a microplate reader (BMG labtech, PHERAstar FS).

[2] = system: NCI-H23 (human non-small cell lung cancer cells); conditions: 144 h, 6 days of culture
Experimental: as §1, §2

[3] = system: SK-BR-3 tumor cells (human breast cancer cells); conditions: 144 h, 6 days of culture
Experimental: as §1, §2

SMILES	IC50 [1]	IC50 [2]	IC50 [3]
COc1cc2c(cc1OCCCCCOc1cc3c(cc1OC)C(=O)N1C=C(c4ccc(N5CCN(C)CC5)cc4)C[C@H]1CN3)N=C[C@@H]1CC3(CC3)CN1C2=O [2-1, (S)-7-Methoxy-8-((5-(((S)-7-methoxy-2-(4-(4-methylpiperazin-1-yl)phenyl)-5-oxo-5,10,11,11a-tetrahydro-1H-benzo[e]pyrrolo[1,2-a][1,4]diazepin-8-yl)oxy)pentyl)oxy)-1,11a-dihydro-3H,5H-spiro[benzo[e]pyrrolo[1,2-a][1,4]diazepine-2,1′-cyclopropan]-5-one]	0.02 nM	0.02 nM	0.07 nM
COc1cc2c(cc1OCCCCCOc1cc3c(cc1OC)C(=O)N1C=C(c4ccc(N5CCOCC5)cc4)C[C@H]1CN3)N=C[C@@H]1CC3(CC3)CN1C2=O [2-2, (S)-7-Methoxy-8-((5-(((S)-7-methoxy-2-(4-morpholinylphenyl)-5-oxo-5,10,11,11a-tetrahydro-1H-benzo[e]pyrrolo[1,2-a][1,4]diazepin-8-yl)oxy)pentyl)oxy)-1,11a-dihydro-3H,5H-spiro[benzo[e]pyrrolo[1,2-a][1,4]diazepine-2,1′-cyclopropan]-5-one]	0.09 nM	0.02 nM	0.05 nM
COc1cc2c(cc1OCCCCCOc1cc3c(cc1OC)C(=O)N1C=C(c4ccc(SC5CC5)cc4)C[C@H]1CN3)N=C[C@@H]1CC3(CC3)CN1C2=O [2-3]	0.49 nM	0.05 nM	0.2 nM
COc1cc2c(cc1OCCCCCOc1cc3c(cc1OC)C(=O)N1C=C(c4ccc(-n5cccn5)cc4)C[C@H]1CN3)N=C[C@@H]1CC3(CC3)CN1C2=O [2-4, (S)-8-((5-(((S)-2-(4-(1H-Pyrazol-1-yl)phenyl)-7-methoxy-5-oxo-5,10,11,11a-tetrahydro-1H-benzo[e]pyrrolo[1,2-a][1,4]diazepin-8-yl)oxy)pentyl)oxy)-7-methoxy-1,11a-dihydro-3H,5H-spiro[benzo[e]pyrrolo[1,2-a][1,4]diazepine-2,1′-cyclopropan]-5-one]	1.45 nM	0.34 nM	0.71 nM
COc1cc2c(cc1OCCCCCOc1cc3c(cc1OC)C(=O)N1C=C(c4ccc(C5CCOCC5)cc4)C[C@H]1CN3)N=C[C@@H]1CC3(CC3)CN1C2=O [2-5, (S)-7-Methoxy-8-((5-(((S)-7-methoxy-5-oxo-2-(4-(tetrahydro-2H-pyran-4-yl)phenyl)-5,10,11,11a-tetrahydro-1H-benzo[e]pyrrolo[1,2-a][1,4]diazepin-8-yl)oxy)pentyl)oxy)-1,11a-dihydro-3H,5H-spiro[benzo[e]pyrrolo[1,2-a][1,4]diazepine-2,1′-cyclopropan]-5-one]	0.91 nM	0.41 nM	1.84 nM
COc1cc2c(cc1OCCCCCOc1cc3c(cc1OC)C(=O)N1C=C(c4ccc(C5CCN(C)CC5)cc4)C[C@H]1CN3)N=C[C@@H]1CC3(CC3)CN1C2=O [2-6, (S)-7-Methoxy-8-((5-(((S)-7-methoxy-2-(4-(1-methylpiperidin-4-yl)phenyl)-5-oxo-5,10,11,11a-tetrahydro-1H-benzo[e]pyrrolo[1,2-a][1,4]diazepin-8-yl)oxy)pentyl)oxy)-1,11a-dihydro-3H,5H-spiro[benzo[e]pyrrolo[1,2-a][1,4]diazepine-2,1′-cyclopropan]-5-one]	0.06 nM	0.03 nM	0.24 nM
COc1cc2c(cc1OCCCCCOc1cc3c(cc1OC)C(=O)N1C=C(c4ccc(-n5nccn5)cc4)C[C@H]1CN3)N=C[C@@H]1CC3(CC3)CN1C2=O [2-7, (S)-8-((5-(((S)-2-(4-(2H-1,2,3-Triazol-2-yl)phenyl)-7-methoxy-5-oxo-5,10,11,11a-tetrahydro-1H-benzo[e]pyrrolo[1,2-a][1,4]diazepin-8-yl)oxy)pentyl)oxy)-7-methoxy-1,11a-dihydro-3H,5H-spiro[benzo[e]pyrrolo[1,2-a][1,4]diazepine-2,1′-cyclopropan]-5-one]	0.07 nM	0.04 nM	0.08 nM
COc1cc2c(cc1OCCCCCOc1cc3c(cc1OC)C(=O)N1C=C(c4ccc(C5CCN(CCO)CC5)cc4)C[C@H]1CN3)N=C[C@@H]1CC3(CC3)CN1C2=O [2-9, (S)-8-((5-(((S)-2-(4-(1-(2-Hydroxyethyl)piperidin-4-yl)phenyl)-7-methoxy-5-oxo-5,10,11,11a-tetrahydro-1H-benzo[e]pyrrolo[1,2-a][1,4]diazepin-8-yl)oxy)pentyl)oxy)-7-methoxy-1,11a-dihydro-3H,5H-spiro[benzo[e]pyrrolo[1,2-a][1,4]diazepine-2,1′-cyclopropan]-5-one]	0.19 nM	0.23 nM	1.25 nM
COc1cc2c(cc1OCCCCCOc1cc3c(cc1OC)C(=O)N1C=C(c4ccc(C5CCN(C(=O)CO)CC5)cc4)C[C@H]1CN3)N=C[C@@H]1CC3(CC3)CN1C2=O [2-10, (S)-8-((5-(((S)-2-(4-(1-(2-Hydroxyacetyl)piperidin-4-yl)phenyl)-7-methoxy-5-oxo-5,10,11,11a-tetrahydro-1H-benzo[e]pyrrolo[1,2-a][1,4]diazepin-8-yl)oxy)pentyl)oxy)-7-methoxy-1,11a-dihydro-3H,5H-spiro[benzo[e]pyrrolo[1,2-a][1,4]diazepine-2,1′-cyclopropan]-5-one]	0.61 nM	0.2 nM	0.63 nM
COc1cc2c(cc1OCCCCCOc1cc3c(cc1OC)C(=O)N1C=C(c4ccc(C5CCN(C(C)=O)CC5)cc4)C[C@H]1CN3)N=C[C@@H]1CC3(CC3)CN1C2=O [2-11, (S)-8-((5-(((S)-2-(4-(1-Acetylpiperidin-4-yl)phenyl)-7-methoxy-5-oxo-5,10,11,11a-tetrahydro-1H-benzo[e]pyrrolo[1,2-a][1,4]diazepin-8-yl)oxy)pentyl)oxy)-7-methoxy-1,11a-dihydro-3H,5H-spiro[benzo[e]pyrrolo[1,2-a][1,4]diazepine-2,1′-cyclopropan]-5-one]	0.69 nM	0.11 nM	0.32 nM
COc1ccc(C2=CN3C(=O)c4cc(OC)c(OCC5(CCCOc6cc7c(cc6OC)C(=O)N6CC8(CC8)C[C@H]6C=N7)CC5)cc4NC[C@@H]3C2)cc1 [2-13, (S)-7-Methoxy-8-(3-(1-((((S)-7-methoxy-2-(4-methoxyphenyl)-5-oxo-5,10,11,11a-tetrahydro-1H-benzo[e]pyrrolo[1,2-a][1,4]diazepin-8-yl)oxy)methyl)cyclopropyl)propoxy)-1,11a-dihydro-3H,5H-spiro[benzo[e]pyrrolo[1,2-a][1,4]diazepine-2,1′-cyclopropan]-5-one]	4.35 nM	1.42 nM	1.64 nM
COc1ccc(C2=CN3C(=O)c4cc(OC)c(OCCCCCOc5cc6c(cc5OC5CC5)C(=O)N5CC7(CC7)C[C@H]5C=N6)cc4NC[C@@H]3C2)cc1 [2-16, (S)-7-Cyclopropoxy-8-((5-(((S)-7-methoxy-2-(4-methoxyphenyl)-5-oxo-5,10,11,11a-tetrahydro-1H-benzo[e]pyrrolo[1,2-a][1,4]diazepin-8-yl)oxy)pentyl)oxy)-1,11a-dihydro-3H,5H-spiro[benzo[e]pyrrolo[1,2-a][1,4]diazepine-2,1′-cyclopropan]-5-one]	0.26 nM	0.18 nM	0.36 nM
COc1ccc(C2=CN3C(=O)c4cc(OC)c(OCCCCCOc5cc6c(cc5OC)C(=O)N5[C@H](C=N6)C[C@@H]6C[C@@H]65)cc4NC[C@@H]3C2)cc1 [2-21, (1aS,9aS,10aS)-5-Methoxy-6-((5-(((S)-7-methoxy-2-(4-methoxyphenyl)-5-oxo-5,10,11,11a-tetrahydro-1H-benzo[e]pyrrolo[1,2-a][1,4]diazepin-8-yl)oxy)pentyl)oxy)-1a,9a,10,10a-tetrahydrobenzo[e]cyclopropa[4,5]pyrrolo[1,2-a][1,4]diazepin-3(1H)-one]	0.57 nM	0.12 nM	0.28 nM
COc1ccc(C2=CN3C(=O)c4cc(OC)c(OCCCCCOc5cc6c(cc5OC)C(=O)N5CC7(CC7)C[C@H]5C=N6)cc4NC(=O)[C@@H]3C2)cc1 [2-22, (S)-7-Methoxy-8-((5-(((S)-7-methoxy-5-oxo-5,11a-dihydro-1H,3H-spiro[benzo[e]pyrrolo[1,2-a][1,4]diazepine-2,1′-cyclopropan]-8-yl)oxy)pentyl)oxy)-2-(4-methoxyphenyl)-1,11a-dihydro-5H-benzo[e]pyrrolo[1,2-a][1,4]diazepine-5,11(10H)-dione]	0.17 nM	0.08 nM	0.26 nM
